Earlier results as cited in patent US6629995B1, “Camptothecin conjugates” (priority 2000, dated 2003).

Key:
[1] = test system: human colon cancer xenografts; conditions: mouse, in vivo
[2] = test system: human tumor xenografts; conditions: nude mice
[3] = administered intravenously
[4] = test system: beta cells of the pancreas; conditions: in vivo
[5] = test system: nontumorigenic and tumorigenic human cells

CC[C@@]1(O)C(=O)OCc2c1cc1n(c2=O)Cc2cc3cc4c(cc3nc2-1)OCO4 [10,11 MD, 10,11-Methylendioxy-20(S)-Camptothecin]
anticancer activity against human colon cancer xenografts [1]: high anticancer activity

CC[C@@]1(O)C(=O)OCc2c1cc1n(c2=O)Cc2cc3c([N+](=O)[O-])cccc3nc2-1 [Example 9NC, 9-nitrocamptothecin]
activity against human tumor xenograft models [2]: high activity

CC[C@@](O)(C(=O)[O-])c1cc2n(c(=O)c1CO)Cc1cc3ccccc3nc1-2.[Na+] [CPT Na+, camptothecin sodium salt]
potency in clinical trials [3]: low potency
toxicity in clinical trials [3]: high toxicity

CC[C@@]1(O)C(=O)OCc2c1cc1n(c2=O)Cc2cc3c(N)cccc3nc2-1 [Example 9AC, 9-Amino-20(S)-Camptothecin]
anticancer activity against human colon cancer xenografts [1]: high anticancer activity

CN(N=O)C(=O)N[C@@H]1[C@@H](O)[C@H](O)[C@@H](CO)O[C@@H]1O [Streptozoticin]
accumulation in tissue [4]: preferentially accumulate in the beta cells of the pancreas

CC[C@@]1(O)C(=O)OCc2c1cc1n(c2=O)Cc2cc3ccccc3nc2-1 [CPT, 20(S)-camptothecin]
effect on nontumorigenic cells ([5]; nontumorigenic human cells in vitro): cytostatic
effect on tumorigenic cells ([5]; tumorigenic human cells in vitro): cytotoxic
solubility in water: insoluble in water
